Like-named read-outs stand apart in the source and are kept apart here. Where a SMILES comes first, the peptide text is derived from it. Bridges are numbered along the chain shown (N, C = ends). Triazole bridges read from a SMILES are 1,4-linked. [ ]: non-standard residue; d: D form. Lys(N3) = [N-]=[N+]=NCCCC[C@H](N)C(=O)O; Pra = C#CC[C@H](N)C(=O)O

One data set in a line: in vivo. Particulars: mouse, iv, 3 MBq/animal, total radioactivity.
A further data set deals with T1, αvβ6 (Homo sapiens, UniProt P06756+P18564).
T1 construct: recombinant human αvβ6 extracellular domain (R&D Systems); purchased R&D Systems (Minneapolis, Minn.)
Put plainly: Competitive integrin binding assay (isoDGR/STV-HRP probe), αvβ6-coated plates. Here is the method: (§1) Peptide binding was measured by a competitive binding assay using as integrin probe a complex made by a N-terminal acetylated isoDGR peptide biotinylated at the E-amino group of the lysine, acetyl-Ciso[…]-bio (SEQ ID No. 29), and a streptavidin-peroxidase conjugate (called isoDGR/STV-HRP)[43].
(§2) Each mixture was then added to integrin-coated wells and left to incubate for 2 h at room temperature. After washing with 25 mM Tris-HCl, pH 7.4, containing 150 mM sodium chloride, 1 mM magnesium chloride, 1 mM manganese chloride, each well was filled with a chromogenic solution (o-phenylenediamine dihydrochloride) and left to incubate for 30 min at room temperature. The chromogenic reaction was stopped by adding 1 N sulfuric acid. The absorbance at 490 nm was then measured using a microtiterplate reader. Ki values were calculated by non-linear regression analysis of competitive binding data using the “One site - Fit Ki” equation of the GraphPad Prism Software using the Kd values of the probe indicated above.

For another data set, the target named is αvβ8 (Homo sapiens, UniProt P06756+P26012). Nature of the data set: Competitive integrin binding assay (isoDGR/STV-HRP probe), αvβ8-coated plates. Here is the method:
as §1, §2

A further data set has as its system BxPC-3 cells. Put plainly: Binding of peptide-IRDye conjugates to cultured BxPC-3 cells. Format: cell-based, human. Particulars: BxPC-3 cells; 5a-IRDye 4 nM. On the procedure: (§3) B) Binding of the indicated peptide-IRDye conjugates to the various cell lines. Various amounts of conjugates were added to cell monolayers (grown in 96-well microtiter plates) and incubated for 1 h at 37° C., 5% CO2 (see Experimental section). After washing, bound fluorescence was measured using an Odyssey CLx (LI-COR) scanner. A representative image of the scanned plate and binding quantification are reported. Mean ±SE of quadruplicate wells.
(§4) Various amounts of unlabeled peptides were mixed 5a-IRDye (4 nM) and added to the cells. After 1 h, the plates were washed, and the bound fluorescence was quantified as described above (left panels).
(§5) The binding of peptide-IRDye conjugates to BxPC-3, 5637, HUVECs, 4T1, K8484 and DT6606 cells was analyzed as follows. The cells were grown in 96-well clear-bottom black microtiterplates (Corning® cat. 3603, 2-3x10^4 cells/well, plated 48 h before the experiment). After washing twice with 0.9% sodium chloride solution, the cells were incubated with 25 mM Hepes buffer, pH 7.4, containing 150 mM sodium chloride, 1 mM magnesium chloride, 1 mM manganese chloride and 1% BSA (binding buffer) for 5 min. Peptide-IRDye conjugates (0.013-40 nM in binding buffer) were then added to the cells and left to incubate for 1 h at 37° C., 5% CO2. After three washings with binding buffer (5 min each, 200 al/well), the cells were fixed with PBS containing 2% paraformaldehyde and 3% sucrose for 15 min at room temperature. Binding of conjugates to cells was quantified by scanning the plate (filled with PBS, 100 al/well) with the Odyssey CLx (LI-COR) using the following settings: scan intensity, 8.5; scan focus offset 4; scan quality, highest; channel, 800; resolution, 169 pm. Then, the plates were incubated with 5 μg/ml of 4′,6-diamidino-2-phenylindole (DAPI) for 15 min, washed twice with PBS and read with a VICTOR3 plate reader (Perkin Elmer, Waltham, Mass., USA) to quantify the cell number in each well, using the following filters: excitation, 355±40 nm; emission, 460±25 nm (acquisition,1 s).

For the next data set, the system named is 5637 cells. Nature of the data set: Binding of peptide-IRDye conjugates to cultured 5637 cells. In kind it is cell-based, human. Particulars: 5637 cells; 5a-IRDye 4 nM. On the procedure: as §3, §4, §5
For data set [1], the system named is human bladder carcinoma 5637 cells. Nature of the data set: 5637 cell viability (PrestoBlue). Particulars: 48 h. Format: cell-based. Here is the method:
FIG. 12. Effect of peptides 4 and 5 on human bladder carcinoma 5637 cell viability. 5637 cells were seeded in a 96-well microtiterplate (20,000 cell/well) and cultured for 16 h at 37° C., 5% CO2. The day after the indicated doses of peptide 4 and 5 were added to the cells and left to incubate for additionally 48 h at 37° C., 5% CO2. Cell viability was assessed using the PrestoBlue* cell viability reagent (ThermoFisher) according to the manufacturer's instructions. Viability of the treated cells was normalized to that of untreated cells and is reported as a percentage (mean±SE of triplicate wells).

Data set [2] in a line: Peptide stability in mouse liver microsomal preparations (RP-HPLC). In kind it is in vitro ADME. Particulars: C57BL/6, mouse, liver microsomes; 37° C.; read-out: t1/2 in mouse liver microsomes (converted). On the procedure: FIG. 14. Stability of peptides 4 and 5 in murine liver microsomes as determined by RP-HPLC. a) RP-HPLC of 4 and 5 after incubation at 37° C. in murine liver microsomes. Peak 1 corresponds to 4 and 5. The peptides were added to murine liver microsomes (454 - μg/ml, final concentration) and incubated for the indicated time, diluted with an equal volume of 90% acetonitrile containing 0.1% TFA and analyzed onto a LiChrospher C18 column (16 ag). No peptide indicates liver microsome aliquot without the peptide. b) Quantification of Peak 1 area (left panel) and height (right panel) of the indicated peptides. The corresponding half-life is also shown.
The stability of compound 4 and 5 in mouse liver microsomal preparations was assessed by HPLC analysis. To this aim microsomes were prepared as follows: 11 g of mouse liver tissue (C57BL/6 mice) was homogenized in cold PBS supplemented with 0.25 M sucrose (3 ml/g of tissue) using a Potter-Elvehjem homogenizer (10 strokes), followed by additional homogenization using a rotor-stator homogenizer (40 sec). The homogenate was filtered through 70 pm cell-strainers, centrifuged three times to remove insoluble materials (500 x g, 5 min; 3000 x g, 30 min; 110000 x g, 90 min, 4° C.). […] Protein concentration was measured by measuring the absorbance at 280 nm with a NanoDrop spectrophotometer (Thermo Scientific). […]

As for `CC[C@H](C)[C@H](NC(=O)[C@H](CCCNC(=N)N)NC(=O)[C@H](CC(C)C)NC(=O)[C@H](CC(=O)O)NC(=O)CNC(=O)[C@H](CCCNC(=N)N)NC(=O)[C@H](CC(C)C)NC(=O)[C@@H](NC(=O)[C@H](CCC(=O)O)NC(=O)[C@H](Cc1ccccc1)NC(=O)[C@@H](N)CSC1CC(=O)N(CCNC(=O)CN2CCN(CC(=O)O)CCN(CC(=O)O)CC2)C1=O)[C@@H](C)O)C(=O)N[C@@H](CC(C)C)C(=O)N[C@@H](CO)C(=O)N[C@H](C(=O)N[C@@H](CC(C)C)C(=O)N[C@@H](CCCNC(=N)N)C(=O)N[C@H]1Cc2cn(nn2)CCCC[C@@H](C(=O)N[C@@H](CCCCN)C(=O)N[C@@H](CCC(=O)O)C(=O)N[C@@H](CC(C)C)C(=O)N[C@@H](CCC(N)=O)C(=O)N[C@@H](CC(=O)O)C(N)=O)NC(=O)[C@H](CC(C)C)NC(=O)[C@H](CC(N)=O)NC(=O)[C@H](CCC(N)=O)NC1=O)[C@@H](C)CC` (some centres unmarked) [1^8F-NOTA-5a], the tissue uptake at 2 h in the data set “in vivo” (accumulation in intestine, femur, liver and stomach) is about 2 %ID/g; in “in vivo” (accumulation in the lungs), 1.2 %ID/g; in the data set “in vivo” (radiotracer levels in the kidneys), about 80 %ID/g; in the data set “in vivo” (uptake in brain, heart, spleen, blood, muscle) it was under 0.5 %ID/g.
For the compound `CC[C@H](C)[C@H](NC(=O)[C@H](CCCNC(=N)N)NC(=O)[C@H](CCC(=O)O)NC(=O)[C@H](CCC(=O)O)NC(=O)CNC(=O)[C@H](CCCNC(=N)N)NC(=O)[C@H](CC(C)C)NC(=O)[C@@H](NC(=O)[C@H](CCC(=O)O)NC(=O)[C@H](Cc1ccccc1)NC(=O)[C@@H](N)CS)[C@@H](C)O)C(=O)N[C@@H](CC(C)C)C(=O)N[C@@H](CO)C(=O)N[C@H](C(=O)N[C@@H](CC(C)C)C(=O)N[C@@H](CCCNC(=N)N)C(=O)N[C@@H](Cc1c[nH]cn1)C(=O)N[C@@H](CCC(N)=O)C(=O)N[C@@H](CC(N)=O)C(=O)N[C@@H](CC(C)C)C(=O)N[C@@H](CC(C)C)C(=O)N[C@@H](CCCCN)C(=O)N[C@@H](CCC(=O)O)C(=O)N[C@@H](CC(C)C)C(=O)N[C@@H](CCC(N)=O)C(=O)N[C@@H](CC(=O)O)C(=O)O)[C@@H](C)CC` [peptide 2a, reference compound] (H-CFETLRGEERILSILRHQNLLKELQD-OH; N-terminus and C-terminus assumed), the inhibition constant (Ki) was over 50000 nM at αvβ6 (Table 3b, mean ± SE, read-out: Binding affinity for αvβ6 Ki) and over 50000 nM at αvβ8 (Table 3b, mean ± SE, read-out: Binding affinity for αvβ8 Ki). Moreover, the “inhibition of 5a-IRDye binding by excess of free peptide” value with BxPC-3 cells and in the data set on 5637 cells was “not” each time.
Take `CC[C@H](C)[C@H](NC(=O)[C@H](CCCNC(=N)N)NC(=O)[C@H](CC(C)C)NC(=O)[C@H](CC(=O)O)NC(=O)CNC(=O)[C@H](CCCNC(=N)N)NC(=O)[C@H](CC(C)C)NC(=O)[C@@H](NC(=O)[C@H](CCC(=O)O)NC(=O)[C@H](Cc1ccccc1)NC(C)=O)[C@@H](C)O)C(=O)N[C@@H](CC(C)C)C(=O)N[C@@H](CO)C(=O)N[C@H](C(=O)N[C@@H](CC(C)C)C(=O)N[C@@H](CCCNC(=N)N)C(=O)N[C@H]1Cc2cn(nn2)CCCC[C@@H](C(=O)N[C@@H](CCCCN)C(=O)N[C@@H](CCC(=O)O)C(=O)N[C@@H](CC(C)C)C(=O)N[C@@H](CCC(N)=O)C(=O)N[C@@H](CC(=O)O)C(N)=O)NC(=O)[C@H](CC(C)C)NC(=O)[C@H](CC(N)=O)NC(=O)[C@H](CCC(N)=O)NC1=O)[C@@H](C)CC` [peptide 5, FETLRGDLRILSILRX1QNLX2KELQD] (Ac-FETLRGDLRILSILR[Pra]QNL[Lys(N3)]KELQD-NH2; triazole 16-20): the Ki on αvβ6 (Table 3a and text, ± standard error of the mean, read-out: Ki αvβ6) came out at 0.6 ± 0.1 nM; on αvβ8 (Table 3a and text, ± standard error of the mean, read-out: Ki αvβ8), 3.2 ± 1.2 nM. The cytotoxicity in vitro result in data set [1] is given as “not cytotoxic”. Also, in data set [2], the half-life at 454 μg/ml is 4.3 h.
As for `CC[C@H](C)[C@H](NC(=O)[C@H](CCCNC(=N)N)NC(=O)[C@H](CC(C)C)NC(=O)[C@H](CC(=O)O)NC(=O)CNC(=O)[C@H](CCCNC(=N)N)NC(=O)[C@H](CC(C)C)NC(=O)[C@@H](NC(=O)[C@H](CCC(=O)O)NC(=O)[C@H](Cc1ccccc1)NC(=O)[C@@H](N)CS)[C@@H](C)O)C(=O)N[C@@H](CC(C)C)C(=O)N[C@@H](CO)C(=O)N[C@H](C(=O)N[C@@H](CC(C)C)C(=O)N[C@@H](CCCNC(=N)N)C(=O)N[C@H]1Cc2cn(nn2)CCCC[C@@H](C(=O)N[C@@H](CCCCN)C(=O)N[C@@H](CCC(=O)O)C(=O)N[C@@H](CC(C)C)C(=O)N[C@@H](CCC(N)=O)C(=O)N[C@@H](CC(=O)O)C(N)=O)NC(=O)[C@H](CC(C)C)NC(=O)[C@H](CC(N)=O)NC(=O)[C@H](CCC(N)=O)NC1=O)[C@@H](C)CC` [peptide 5a, CFETLRGDLRILSILRX1QNLX2KELQD], the “inhibition of 5a-IRDye binding by excess of free peptide” value in the data set on BxPC-3 cells and with 5637 cells was “significantly inhibited” throughout.

Values taken from patent US20220402980A1, “CHROMOGRANIN A-DERIVED PEPTIDES AND USES THEREOF” (OSPEDALE SAN RAFFAELE S.R.L., priority 2019, published 2022).
